Experimental data as given in ChEMBL document CHEMBL4043138, “Synthesis of antimalarial amide analogues based on the plant serrulatane diterpenoid 3,7,8-trihydroxyserrulat-14-en-19-oic acid” (Bioorg Med Chem Lett, 2017).
The source made the active and inactive calls. The calls are words filed in the database; no cut-off is given here.

What was measured:
Plasmodium falciparum [1] = assay: Antimalarial activity against Plasmodium falciparum 3D7 after 72 hrs by DAPI staining-based fluorescence microscopic analysis; format: functional; details: 3D7, 72 h
Plasmodium falciparum [2] = assay: Antimalarial activity against Plasmodium falciparum Dd2 after 72 hrs by DAPI staining-based fluorescence microscopic analysis; format: functional; details: Dd2, 72 h
[3] = Selectivity ratio of IC50 for Plasmodium falciparum Dd2 to IC50 for Plasmodium falciparum 3D7; format: functional
[4] = (§1) Cytotoxicity against HEK293 cells assessed as cell growth inhibition at 80 uM after 72 hrs by Alamar blue assay relative to control; format: cell-based; details: human, HEK293 cells; read-out: GI
HEK293 [5] = assay: Cytotoxicity against HEK293 cells assessed as cell growth inhibition after 72 hrs by Alamar blue assay; format: cell-based; details: Homo sapiens, HEK293, 72 h
[6] = Selectivity index, ratio of IC50 for HEK293 cells to IC50 for Plasmodium falciparum 3D7; format: toxicity; details: human, HEK293 cells versus Plasmodium falciparum 3D7; read-out: Ratio IC50
HEK293 [7] = assay: as §1; format: cell-based; details: human, hek293, 72 h, 80 µM
[8] = Cytotoxicity against HEK293 cells assessed as cell growth inhibition at 20 uM after 72 hrs by Alamar blue assay relative to control; format: cell-based; details: human, read-out: GI
Plasmodium falciparum [9] = assay: Antimalarial activity against Plasmodium falciparum Dd2 at 80 uM after 72 hrs by DAPI staining-based fluorescence microscopic analysis; format: functional
Plasmodium falciparum [10] = assay: Antimalarial activity against Plasmodium falciparum 3D7 at 10 uM after 72 hrs by DAPI staining-based fluorescence microscopic analysis; format: functional
HEK293 [11] = assay: Cytotoxicity against HEK293 cells assessed as cell growth inhibition at 40 uM after 72 hrs by Alamar blue assay; format: cell-based; details: human, hek293, 72 h

Row | Structure (SMILES) | IC50 (Plasmodium falciparum [1]) [µM] | IC50 (Plasmodium falciparum [2]) [µM] | Ratio IC50 [3] | inhibition at 72 h, 80 µM [4] [%] | IC50 (HEK293 [5]) [µM] | selectivity ratio [6] | growth inhibition (GI) (HEK293 [7]) | inhibition at 72 h, 20 µM [8] [%] | Activity (Plasmodium falciparum [9]) | Activity (Plasmodium falciparum [10]) | growth inhibition (GI) (HEK293 [11])
1 | CC(C)=CCC[C@H](C)[C@H]1c2cc(C(=O)O)c(O)c(OC(=O)C(C)(C)C)c2[C@H](C)C[C@H]1OC(=O)C(C)(C)C | 8.44 | 10.2 | 1.2 | 100 | 40 | 4.7 |  |  |  |  | 
2 | COc1ccc(C[C@H](N)C(=O)N[C@H]2[C@@H](O)[C@H](n3cnc4c(N(C)C)ncnc43)O[C@@H]2CO)cc1 [PUROMYCIN] | 0.0532 | 0.0438 | 1.16 |  | 0.46 | 9 |  |  |  |  | 
3 | C[C@H]1[C@H](OC(=O)CCC(=O)O)O[C@@H]2O[C@@]3(C)CC[C@H]4[C@H](C)CC[C@@H]1[C@@]24OO3 [ARTESUNATE] |  | 0.001 |  |  | 10 | > 11600 |  | 91 |  |  | 
4 | CC(=O)OCc1cc2c(c(O)c1O)[C@H](C)C[C@@H](OC(C)=O)[C@H]2[C@@H](C)CCC=C(C)C | 6.89 | 8.76 | 1.3 | 59 | 80 | 11.6 |  |  |  |  | 
5 | CC(C)=CCC[C@H](C)[C@H]1c2cc(C(=O)O)c(OC(=O)C(C)(C)C)c(OC(=O)C(C)(C)C)c2[C@H](C)C[C@H]1O | 13.6 |  |  | 70 | 40 | 2.9 |  |  | inactive |  | 
6 | CC(C)=CCC[C@H](C)[C@H]1c2cc(C(=O)O)c(O)c(O)c2[C@H](C)C[C@H]1O |  |  |  |  |  |  |  |  |  | inactive | 
7 | CCN(CC)CCCC(C)Nc1ccnc2cc(Cl)ccc12 (stereo not given) [CHLOROQUINE] |  |  |  |  | 40 |  |  |  |  |  | Non-Toxic
8 | CC(=O)O[C@@H]1C[C@@H](C)c2c(cc(C(=O)O)c(O)c2O)[C@@H]1[C@@H](C)CCC=C(C)C |  |  |  |  |  |  |  |  |  | inactive | 

Second part, led by results:

Row | IC50 (Plasmodium falciparum [1]) [µM] | IC50 (Plasmodium falciparum [2]) [µM] | Structure (SMILES) | Ratio IC50 [3] | inhibition at 72 h, 80 µM [4] [%] | IC50 (HEK293 [5]) [µM] | selectivity ratio [6] | growth inhibition (GI) (HEK293 [7]) | inhibition at 72 h, 20 µM [8] [%] | Activity (Plasmodium falciparum [9]) | Activity (Plasmodium falciparum [10]) | growth inhibition (GI) (HEK293 [11])
9 | 1.4 | 3.63 | CC(C)=CCC[C@H](C)[C@H]1c2cc(C(=O)NCCc3ccccc3)c(OC(=O)C(C)(C)C)c(OC(=O)C(C)(C)C)c2[C@H](C)C[C@H]1OC(=O)C(C)(C)C | 2.6 |  | 80 | > 57 | Non-Toxic |  |  |  | 
10 | 2.7 | 5.94 | CC(C)=CCC[C@H](C)[C@H]1c2cc(C(=O)NCCc3ccc(Cl)cc3)c(OC(=O)C(C)(C)C)c(OC(=O)C(C)(C)C)c2[C@H](C)C[C@H]1OC(=O)C(C)(C)C | 2.2 |  | 80 | > 30 | Non-Toxic |  |  |  | 
11 | 2.12 | 6.17 | CC(C)=CCC[C@H](C)[C@H]1c2cc(C(=O)NCc3ccccc3)c(OC(=O)C(C)(C)C)c(OC(=O)C(C)(C)C)c2[C@H](C)C[C@H]1OC(=O)C(C)(C)C | 2.9 | 82 | 40 | 19 |  |  |  |  | 
12 | 2.44 | 4.57 | CC(C)=CCC[C@H](C)[C@H]1c2cc(C(=O)NCCc3ccc(Cl)cc3)c(OC(=O)C(C)(C)C)c(OC(=O)C(C)(C)C)c2[C@H](C)C[C@H]1O | 1.9 | 68 | 80 | 32 |  |  |  |  | 
13 | 1.42 | 5.03 | CC(C)=CCC[C@H](C)[C@H]1c2cc(C(=O)NCc3ccc(Br)cc3)c(OC(=O)C(C)(C)C)c(OC(=O)C(C)(C)C)c2[C@H](C)C[C@H]1OC(=O)C(C)(C)C | 3.6 | 71 | 40 | 28 |  |  |  |  | 
14 | 3.12 | 7.42 | CC(C)=CCC[C@H](C)[C@H]1c2cc(C(=O)NCCc3ccc(Br)cc3)c(OC(=O)C(C)(C)C)c(OC(=O)C(C)(C)C)c2[C@H](C)C[C@H]1OC(=O)C(C)(C)C | 2.4 |  | 80 | > 26 | Non-Toxic |  |  |  | 
15 | 5.65 | 8.76 | CC(C)=CCC[C@H](C)[C@H]1c2cc(C(=O)NCCN(C)C)c(OC(=O)C(C)(C)C)c(OC(=O)C(C)(C)C)c2[C@H](C)C[C@H]1OC(=O)C(C)(C)C | 1.6 |  | 14.6 | 2.6 |  |  |  |  | 
16 | 1.25 | 3.76 | CC(C)=CCC[C@H](C)[C@H]1c2cc(C(=O)NCCc3ccc(F)cc3)c(OC(=O)C(C)(C)C)c(OC(=O)C(C)(C)C)c2[C@H](C)C[C@H]1OC(=O)C(C)(C)C | 3 |  | 80 | > 64 | Non-Toxic |  |  |  | 
17 | 9.97 | 18 | CC(C)=CCC[C@H](C)[C@H]1c2cc(C(=O)O)c(OC(=O)C(C)(C)C)c(OC(=O)C(C)(C)C)c2[C@H](C)C[C@H]1OC(=O)C(C)(C)C | 1.8 | 100 | 40 | 4 |  |  |  |  | 
18 | 1.79 | 6.13 | CC(C)=CCC[C@H](C)[C@H]1c2cc(C(=O)NCc3ccc(F)cc3)c(OC(=O)C(C)(C)C)c(OC(=O)C(C)(C)C)c2[C@H](C)C[C@H]1OC(=O)C(C)(C)C | 3.4 | 44 | 80 | 44 |  |  |  |  | 
19 | 1.36 | 4.96 | CC(C)=CCC[C@H](C)[C@H]1c2cc(C(=O)NCc3ccc(Cl)cc3)c(OC(=O)C(C)(C)C)c(OC(=O)C(C)(C)C)c2[C@H](C)C[C@H]1OC(=O)C(C)(C)C | 3.6 | 86 | 40 | 29.4 |  |  |  |  | 
